According to patent US9663463B2, “3-azabicyclo[3.1.0]hexane derivative and use thereof for medical purpose” (priority 2013, dated 2017):
Where a name gives a salt, the structure may show the parent alone.

Assays:
in vitro = in vitro ADME, mice; conditions: Crl:CD-1 (ICR), mouse, pH 7.4; murine serum, equilibrium dialysis, 37° C., 5 to 6 hours; read-out: Protein binding rate (converted)
Procedure: The protein binding rate was determined by equilibrium dialysis method using the RED Device (8K MWCO, Rapid Equilibrium Dialysis Device, Thermo Scientific). The test substances that had been dissolved in DMSO were added to the serum that was collected from Crl: CD-1 (ICR) mice fasted overnight, so that the final concentration of DMSO became 1% (v/v). The serum to which the test substance had been added was added to the inner side of the dialysis membrane of the RED Device, and PBS (phosphate buffer saline, pH 7.4) containing 0.01% (v/v) Tween 80 was added to the outside in accordance with the method for using the RED Device and incubated at 37° C. for 5 to 6 hours with ellipsoidal shaking at 100 rpm so that the concentration of the unbound test substance in the serum and the concentration of the test substance in the PBS reached equilibrium. After the incubation was completed, the respective solutions were collected and stored under freezing at −60° C. or less as measurement samples. The proteins were removed from the measurement sample by adding acetonitrile in an amount of 5-fold or more of the amount of the internal standard substance and the serum sample, and the supernatants were measured by LC/MS/MS (liquid chromatograph—triple quadrupole mass spectrometer). The serum samples were measured after suitably diluting with distilled water as necessary.
A: the concentration of the test substance in the PBS sample
B: the concentration of the test substance in the serum sample

[1] = Plasma concentration of test substance at ED50 value (mice, LC/MS/MS); type: in vivo; conditions: at the ED50 value, at time of morphine administration, oral, linear regression from two doses
Procedure: The concentration of the test substances in blood plasma was confirmed by using mice of the same week-old for the same dose as that used in the evaluation of the anti-pruritic effect. The test substance was administered by forced oral administration of an administration vehicle prepared in a similar manner to that in the evaluation of the anti-pruritic effect under a non-fasting condition. The blood samples were collected from the orbital venous plexus, within from 15 minutes after the administration of the test substance to after 180 minutes at the maximum, for multiple times including the timing at which the morphine solution was intracisternally administered, under inhalation anesthesia with diethyl ether or isoflurane using a heparin-treated hematocrit tubes. The collected blood samples were immediately ice-cooled and centrifuged at 1,800 g for 15 minutes at 4° C., and the plasma fractions were transferred and stored under freezing at −30° C. or less until measurement.
The concentrations of the test substances in plasma were measured using LC/MS/MS. Furthermore, as the measurement samples for LC/MS/MS, the supernatants obtained by adding an internal standard substance and acetonitrile in an amount within a range from 5-fold to 10-fold of the amount of the plasma to the collected plasma samples, and removing proteins therefrom, was used.

hERG = hERG (Homo sapiens (Human), UniProt Q12809); assay: Safety margin against hERG inhibitory activity; conditions: hERG IC50×1000/{concentration in plasma at ED50×(1−protein binding rate/100)}
Procedure: In order to compare the risks of extension of QT interval prolongation in the electrocardiogram among the test substances, the safety margins against the hERG inhibitory effect were calculated. […] Therefore, the following formula was used for calculating the safety margin, and the obtained values were described in Table 7. Safety margin against hERG inhibitory effect=IC50×1000/{concentration in plasma×(1−protein binding rate/100)}
IC50: the IC50 value in a hERG inhibition assay (μM)
Plasma concentration: the plasma concentration of test substance (nM) at the ED50 value in the test for evaluating the anti-pruritic effect in the morphine model
Protein binding rate: the protein binding rate (%) in the protein binding assay in murine serum

hERG current = hERG current (Homo sapiens (Human), UniProt Q12809); assay: cell-based
hERG current, sequence (Q12809 whole entry): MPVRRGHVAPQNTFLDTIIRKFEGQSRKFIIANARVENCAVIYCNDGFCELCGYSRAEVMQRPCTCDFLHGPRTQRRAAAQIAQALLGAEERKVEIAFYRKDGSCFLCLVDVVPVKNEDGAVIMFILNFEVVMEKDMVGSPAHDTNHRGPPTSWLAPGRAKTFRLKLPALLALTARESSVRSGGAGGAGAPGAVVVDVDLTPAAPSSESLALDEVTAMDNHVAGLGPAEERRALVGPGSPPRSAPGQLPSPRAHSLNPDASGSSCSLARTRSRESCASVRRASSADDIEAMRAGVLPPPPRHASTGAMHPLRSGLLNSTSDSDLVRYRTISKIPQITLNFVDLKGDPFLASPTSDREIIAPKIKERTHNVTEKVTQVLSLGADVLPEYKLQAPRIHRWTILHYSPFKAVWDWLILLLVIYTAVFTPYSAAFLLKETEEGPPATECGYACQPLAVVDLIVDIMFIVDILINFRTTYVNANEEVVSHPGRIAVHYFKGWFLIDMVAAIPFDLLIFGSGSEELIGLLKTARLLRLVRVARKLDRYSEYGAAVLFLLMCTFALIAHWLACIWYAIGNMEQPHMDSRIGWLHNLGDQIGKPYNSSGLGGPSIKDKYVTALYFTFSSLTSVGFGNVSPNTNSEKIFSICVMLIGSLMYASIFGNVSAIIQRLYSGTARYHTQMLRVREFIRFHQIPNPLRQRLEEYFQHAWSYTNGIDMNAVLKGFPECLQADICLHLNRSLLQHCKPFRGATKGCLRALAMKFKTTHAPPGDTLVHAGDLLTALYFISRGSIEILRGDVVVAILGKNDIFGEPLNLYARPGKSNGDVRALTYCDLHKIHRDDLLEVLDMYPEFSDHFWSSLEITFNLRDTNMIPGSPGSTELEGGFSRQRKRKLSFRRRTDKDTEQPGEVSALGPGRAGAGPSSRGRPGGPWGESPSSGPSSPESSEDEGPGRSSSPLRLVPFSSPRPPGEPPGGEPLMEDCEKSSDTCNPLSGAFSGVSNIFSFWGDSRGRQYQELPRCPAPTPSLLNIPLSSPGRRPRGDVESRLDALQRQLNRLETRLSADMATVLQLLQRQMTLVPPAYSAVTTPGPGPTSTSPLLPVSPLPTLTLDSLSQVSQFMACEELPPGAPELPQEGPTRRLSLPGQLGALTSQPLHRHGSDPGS
Description: A: the suppression rate (%) of the test substance in each cell
B: the average suppression rate (%) of the vehicle control group

[2] = tested on: pruritus mice model to which morphine had been intracisternally administered; assay: Anti-pruritic effect in pruritus mice model to which morphine had been intracisternally administered; type: in vivo; conditions: Mus musculus; oral administration, male ICR mice, inhibition of morphine-induced scratching behavior; read-out: ED50
Procedure: As experimental animals, male ICR (Cr1j: CD1 (ICR): Charles River Japan) mice were used at 5 to 6-week old. The mice were placed in an acrylic cage (colorless and transparent, W 13.5 cm×D 9.5 cm×H 40 cm) for observing scratching behavior for 30 minutes or more to thereby allow the mice to get used to the observation environment, and the test substance solutions were forcedly orally administered to the test substance-administered groups. In addition, an administration vehicle was forcedly orally administered to the normal control group and the pathological control group. A necessary amount of the test substance was weighed and formed into a micropowder in an agate mortar, an administration vehicle, a 0.5 w/v % methyl cellulose 400 solution (Wako Pure Chemical Industries Ltd.) was added little by little, and preparation was performed by suspending or dissolving so as to give an intended concentration (from 0.025 to 3 mg/ml). The test doses were preset to suitable doses in the range in which the maximum dose is 30 mg/10 ml/kg.
Based on 30 minutes after the forced oral administration of the test substance as a criterion, the time for the intracisternal administration of morphine was suitably set up to 120 minutes after at the maximum, with consideration for the times of maximum plasma concentration of the respective test substances, in the case when the in vivo pharmacokinetics of the test substance had been confirmed in advance. Furthermore, saline was intracisternally administered to the normal control group, and the above-mentioned morphine solution was intracisternally administered to the pathogenic control group, so as to be 5 μL/site at the same time as that of the test substance group after the forced oral administration of the administration vehicle in either case.
The behavior of each mouse within 60 minutes from the intracisternal administration of the morphine solution or saline was recorded by a digital video camera that was installed immediately above the acrylic cage, the images were stored in a digital video recorder, and the number of frequency of the scratching behavior was measured. The number of frequency of the scratching behavior was measured with deeming a behavior in which the mouse raised its hindlimb, scratched the facial surface and the peripheral sites thereof, and got the hindlimb off from the body within 30 minutes from after the intracisternal administration of the morphine or saline as one time.
The anti-pruritic effect of each test substance was obtained as follows. As an inhibition ratio against the number of frequency of the scratching behavior on the pathological control group, the inhibition ratio (%) of the respective individuals and the average value thereof were calculated from the following formula, and an ED50 value was calculated based on the obtained inhibition ratio. Inhibition ratio of each individual (%)={1−(A−Vehicle)/(Morphine−Vehicle)}×100 Morphine: the average of the scratching number of the pathological control group Vehicle: the average of the scratching number of the normal control group A: the scratching number of each individual in the test substance-administered group

| Compound | fraction unbound (in vitro) | Plasma concentration of test substance [1] | Safety margin (hERG) | IC50 (hERG current) | ED50 [2] |
| --- | --- | --- | --- | --- | --- |
| CC[C@]1(c2cc(NS(=O)(=O)C3CC3)ccc2F)[C@@H]2CN(CCCN3CCC(F)(F)CC3)C[C@@H]21 [Example 15-(b), N-(3-{(1R,5S,6r)-3-[3-(4,4-difluoropiperidin-1-yl)propyl]-6-ethyl-3-azabicyclo[3.1.0]hexan-6-yl}-4-fluorophenyl)cyclopropanesulfonamide hydrochloride] | 0.1 | 71.5 nM | 182 | 1300 nM | 3.1 mg/kg |
| CC[C@]1(c2cc(NS(=O)(=O)C3CC3)ccc2F)[C@@H]2CN(CC3(O)Cc4ccccc4C3)C[C@@H]21 [Example 2-(b), N-(3-{(1R,5S,6r)-6-ethyl-3-[(2-hydroxy-2,3-dihydro-1H-inden-2-yl)methyl]-3-azabicyclo[3.1.0]hexan-6-yl}-4-fluorophenyl)cyclopropanesulfonamide hydrochloride] | 0.006 | 21.4 nM | 1250 | 160 nM | 0.83 mg/kg |
| CC[C@]1(c2cc(F)cc(NS(=O)(=O)C3CC3)c2)[C@@H]2CN(CC3(O)Cc4ccccc4C3)C[C@@H]21 [Example 10-(b), N-(3-{(1R,5S,6r)-6-ethyl-3-[(2-hydroxy-2,3-dihydro-1H-inden-2-yl)methyl]-3-azabicyclo[3.1.0]hexan-6-yl}-5-fluorophenyl)cyclopropanesulfonamide hydrochloride] | 0.102 | 129 nM | 5 | 62 nM | 1.8 mg/kg |
| CC[C@]1(c2cccc(NS(=O)(=O)C3CC3)c2)[C@@H]2CN(CCCC3CCC(F)(F)CC3)C[C@@H]21 [Example 4-(b), N-(3-{(1R,5S,6r)-3-[3-(4,4-difluorocyclohexyl)propyl]-6-ethyl-3-azabicyclo[3.1.0]hexan-6-yl}phenyl)cyclopropanesulfonamide hydrochloride] | 0.019 | 31.6 nM | 157 | 94 nM | 0.5 mg/kg |
| CC[C@]1(c2cc(NS(=O)(=O)C3CC3)ccc2F)[C@@H]2CN(CCCC3CCC(F)(F)CC3)C[C@@H]21 [Example 5-(b), N-(3-{(1R,5S,6r)-3-[3-(4,4-difluorocyclohexyl)propyl]-6-ethyl-3-azabicyclo[3.1.0]hexan-6-yl}-4-fluorophenyl)cyclopropanesulfonamide hydrochloride] | 0.005 | 116 nM | 153 | 89 nM | 1.7 mg/kg |
| CC[C@]1(c2cccc(NS(=O)(=O)C3CC3)c2)[C@@H]2CN(CCCN3CCCC(F)(F)C3)C[C@@H]21 [Example 16-(b), N-(3-{(1R,5S,6r)-3-[3-(3,3-difluoropiperidin-1-yl)propyl]-6-ethyl-3-azabicyclo[3.1.0]hexan-6-yl}phenyl)cyclopropanesulfonamide hydrochloride] | 0.246 | 44.5 nM | 58 | 640 nM | 5.7 mg/kg |
| CC[C@]1(c2cccc(NS(=O)(=O)C3CC3)c2)[C@@H]2CN(CCCN3CCC(F)(F)C3)C[C@@H]21 [Example 8-(b), N-(3-{(1R,5S,6r)-3-[3-(3,3-difluoropyrrolidin-1-yl)propyl]-6-ethyl-3-azabicyclo[3.1.0]hexan-6-yl}phenyl)cyclopropanesulfonamide hydrochloride] | 0.316 | 10.9 nM | 99 | 340 nM | 2 mg/kg |
